According to patent US5026882A, “Phosphinic acid substituted steroids as inhibitors of steroid 5α-reductase” (priority 1988, dated 1991):
Where two headings read alike, the source gives them in different places.

Assays:
[1] = biological target: T1, Human Prostatic Steroid 5α-Reductase (Homo sapiens, UniProt P31213); assay: Inhibition of human steroid 5α-reductase using tissue from hyperplastic human prostates ([14C]-testosterone conversion, Dixon analysis); type: biochemical
T1 construct: Prostatic particles were obtained by differential centrifugation; from tissue; host or cells: frozen human prostates (hyperplastic), 140,000 × g particulate fraction
T1 sequence (P31213 1-254): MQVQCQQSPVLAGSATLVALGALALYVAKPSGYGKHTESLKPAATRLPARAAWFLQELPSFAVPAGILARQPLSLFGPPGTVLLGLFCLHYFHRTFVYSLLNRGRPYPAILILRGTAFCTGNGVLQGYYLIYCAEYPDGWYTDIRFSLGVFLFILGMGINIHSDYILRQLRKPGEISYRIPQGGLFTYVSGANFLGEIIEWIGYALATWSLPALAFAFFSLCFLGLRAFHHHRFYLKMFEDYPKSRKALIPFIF
Experimental: Such diseases and conditions include acne vulgaris, seborrhea, female hirsutism, prostate diseases such as benign prostatic hypertrophy, and male pattern baldness. several compounds of the invention were tested for potency in inhibiting human steroid 5α-reductase using tissue from hyperplastic human prostates. In determining potency in inhibiting the human enzyme, the following procedure was employed:
Frozen human prostates were thawed and minced into small pieces (5 mm^3). The tissue was homogenized in 3 to 5 volumes of 20 mM potassium phosphate, pH 6.5, buffer containing 0.33 M sucrose, 1 mM dithiothreitol, and 50 μM NADPH with a Brinkmann Polytron (Sybron Corporation, Westbury, N.Y.). The solution was subjected to sonication for 3 to 5 minutes with a Sonifier (Branson Sonic Power Co.) followed by hand homogenization in a glass-to-glass Dounce homogenizer (Kontes Glass Company, Vineland, N.J.).
Prostatic particles were obtained by differential centrifugation at 600 to 1000 × g for 20 minutes and 140,000 × g for 60 minutes at 4° C. The pellet obtained from the 140,000 × g centrifugation was washed with 5 to 10 tissue volumes of the buffer described above and recentrifuged at 140,000 × g. The resulting pellet was suspended in 20 mM potassium phosphate buffer, pH 6 5, containing 20% glycerol, 1 mM dithiothreitol, and 50 μM NADPH. The suspended particulate solution was stored at -80° C.
A constant amount of [^14 C]-testosterone (52 to 55 mCi/mmol, New England Nuclear, Boston, Mass.) in ethanol and varying amounts of the potential inhibitor in ethanol were deposited in test tubes and concentrated to dryness in a SAVANT Speed Vac. To each tube was added buffer, 20 μl of 10 mM NADPH and an aliquot of prostatic particulate solution to a final volume of 1.0 ml of 50 mM sodium citrate, pH 5.0. After incubating the solution at 37° C. for 20 to 30 minutes the reaction was quenched by the addition of 4 ml ethyl acetate and 0.25 μmol each of testosterone, dihydrotestosterone, androst-aneidiol, and androst-anedione as carriers. The organic layer was removed to a second test tube and evaporated to dryness in a Speed Vac. The residue was dissolved in 20 to 30 μl chloroform, spotted on an individual lane of a 20×20 cm prechannelled silica gel TLC plate (Si 250F-PA, Baker Chemical) and developed twice with acetone:chloroform (1:9). The radiochemical content in the bands of the substrate and the products was determined with a BIOSCAN Imaging Scanner (Bioscan, Inc., Washington, D.C.). The percent of recovered radiolabel converted to product was calculated, from which enzyme activity was determined. All incubations were conducted such that no more than 12% of the substrate (testosterone) was consumed.
The experimentally obtained data was computer fitted to a linear function by plotting the reciprocal of the enzyme activity (1/velocity) against the variable inhibitor concentration (Dixon, M. (1953), Biochem. J., 55, 170). Assuming that the steroidal inhibitor is a competitive inhibitor against testosterone, a value for the inhibition constant (Ki) can be calculated from equation 1:
Ki =(B/A)/(S/Km +1) Equation 1

steroid 5α-reductase = details: cited from earlier work; for Reversible / Irreversible inhibition: Table 1, in words beside Ki; for Ki: Table 1, literature references
[2] = test system: human steroid 5α-reductase; details: read-out: Km (Michaelis-Menton constant of the substrate); testosterone as substrate
From the text: where B is the intercept on the 1/velocity axis, A is the slope of the line, S is the concentration of substrate (testosterone) used in the experiment, and Km is the Michaelis-Menton constant of the substrate (testosterone)

[3] = human prostatic particulate, pH 5.0, 37° C., 20 to 30 minutes, competitive inhibition against testosterone assumed, read-out: Ki , app

**Q.** For `CC(C)N(C(=O)[C@H]1CC[C@H]2[C@@H]3CC=C4C=C([PH](=O)O)CC[C@]4(C)[C@H]3CC[C@]12C)C(C)C` [Example 1, 17β-N,N-Diisopropylcarboxamido-androst-3,5-diene-3-phosphinic acid], which Ki [1, 3] is on record?
**A.** 7 nM

**Q.** Which Ki [1] does the source give for `CC(C)N(C(=O)[C@H]1CC[C@H]2[C@@H]3CC[C@H]4CC([PH](=O)O)=CC[C@]4(C)[C@H]3CC[C@]12C)C(C)C` [Example 3, 17β-N,N-Diisopropylcarboxamide-5α-androst-2-ene-3-phosphinic Acid] here?
**A.** 15 nM

**Q.** What does the source list for `C[C@]12CC[C@H]3[C@@H](CCC4=CC(=O)CC[C@@]43C)[C@@H]1CC[C@@H]2C(=O)O`?
**A.** Reversible / Irreversible inhibition (steroid 5α-reductase): Reversible; Ki (steroid 5α-reductase): 1100 nM

**Q.** With `CC(C)(C)NC(=O)[C@H]1CC[C@H]2[C@@H]3CC=C4C=C([PH](=O)O)CC[C@]4(C)[C@H]3CC[C@]12C` [Example 2, 17β-N-t-Butylcarboxamide-androst-3,5-diene-3-phosphinic acid] as the molecule, how does the Ki [1, 3] read?
**A.** 35 nM

**Q.** Which Km [2] does the source give for `C[C@]12CC[C@H]3[C@@H](CCC4=CC(=O)CC[C@@]43C)[C@@H]1CC[C@@H]2O` [testosterone] here?
**A.** 4.5 µM

**Q.** For `CC(CO)[C@H]1CC[C@H]2[C@@H]3CC[C@H]4C(=[N+]=[N-])C(=O)CC[C@]4(C)[C@H]3CC[C@]12C` (some centres unmarked), which “Reversible / Irreversible inhibition” value (steroid 5α-reductase) is on record?
**A.** Irreversible

**Q.** What about the Ki (steroid 5α-reductase) of the same molecule?
**A.** 3.5 nM

**Q.** What about the “time dependence of inhibition (in words)” value (steroid 5α-reductase; literature) of the same molecule?
**A.** potent, time-dependent inhibitor

**Q.** With `CC(=O)[C@H]1CC[C@H]2[C@@H]3CC=C=CC(=O)CCC(=O)[C@H]3CC[C@]12C` as the molecule, how does the “Reversible / Irreversible inhibition” value (steroid 5α-reductase) read?
**A.** Irreversible

**Q.** And the Ki (steroid 5α-reductase)?
**A.** 1000 nM

**Q.** Which Ki [1, 3] does the source give for `CC(C)N(C(=O)[C@H]1CC[C@H]2[C@@H]3CC=C4C=C(P(C)(=O)O)CC[C@]4(C)[C@H]3CC[C@]12C)C(C)C` [Example 9, 17β-N,N-diisopropylcarboxamido-androst-3,5-diene-3-methylphosphinic acid] here?
**A.** 55 nM

**Q.** Which Ki [1] does the source give for `CC(C)N(C(=O)[C@H]1CC[C@H]2[C@@H]3CCC4=CC([PH](=O)O)=CC[C@]4(C)[C@H]3CC[C@]12C)C(C)C` [Example 7, 7β-N,N-Diisopropylcarboxamido-androst-2,4-diene-3-phosphinic acid] here?
**A.** 20 nM

**Q.** Which Ki [1, 3] does the source give for `CC(C)N(C(=O)[C@H]1CC[C@H]2[C@@H]3CC[C@H]4C=C([PH](=O)O)CC[C@]4(C)[C@H]3CC[C@]12C)C(C)C` [Example 5, 17β-N,N-Diisopropylcarboxamido-5α-androst-3-ene-3-phosphinic acid] here?
**A.** 25 nM
